The source of these data is patent US20240109853A1 (Shanghai Yao Yuan Biotechnology Co., Ltd., priority 2020, published 2024).

Read-outs that look alike come from different tables or passages of the source.

The target of the assay is ALPK1 (Homo sapiens (Human), UniProt Q96QP1). Put plainly: ALPK1 in vitro kinase assay (HTRF of TIFA phosphorylation). The format is biochemical. An excerpt:
In embodiments, a compound of Formula I, or a subembodiment described herein, is an inhibitor of ALPK1 as measured, for example, in an in vitro kinase assay, or an assay designed to measure the activation of downstream targets of ALPK1 pathway activation, for example NFkB transcriptional activation and the secretion of proinflammatory cytokines and chemokines, such as IL-8, which is also referred to as CXCL-8. In general, the computer program XL fit was used for data analysis, including non-linear regression analysis. The half maximal inhibitory concentration (IC50) was used as the measure of a compound's effectiveness in the assays. IC50 values were determined using the following logistic equation Y=min+(max−min)/(1+(X/IC50^−hillslpoe), where Y is the value at the compound concentration, X. The concentration response curve fitting was conducted using GraphPad Prism version 6.00 software.
ALPK1 kinase activity was measured in an in vitro assay using ADP-Heptose as the ALPK1 ligand and activator of its kinase activity and TIFA protein as the ALPK1 phosphorylation substrate. Since phosphorylated TIFA proteins oligomerize, Homogeneous Time-Resolved Fluorescence (HTRF) was used to measure protein:protein interaction between HA-tagged TIFA proteins as an indicator of TIFA phosphorylation.
In brief, dose-response studies were performed with HEK293 cells cultured in Dulbecco's Modified Eagle Medium (DMEM) supplemented 10% fetal bovine serum (FBS, Hyclone™) containing antibiotics (pen/strep, G418) in 384-well assay plates. Each well contained 0.1 mg TIFA, ALPK1 (2 nM final concentration in reaction mixture) and kinase buffer (100 mM of HEPES pH 7.4, 4 mM DTT, 40 mM MgCl2, 20 mM of β-Glycerol phosphate disodium salt, 0.4 mM of Na3VO4, 0.16 mg/mL). Titrations of the test compounds were prepared in dimethylsulphoxide (DMSO). The reaction was initiated by addition of ATP and ADP-Heptose.
For HTRF, samples were incubated with a Tb cryptate-labeled anti-HA antibody for capturing HA-tagged proteins according to the manufacturer's instructions (PerkinElmer™, CisBio™) and the fluorescence signal was quantified (Tecan Infinite F NANO+). HTRF signals were calculated as the HTRF ratio (ratio of fluorescence measured at 665 nm and 620 nm)×104 (thereby using the signal at 620 nm as an internal standard).
IC50 values were determined using 3- or 4-parameter logistic equation using GraphPad Prism version 6.00. The reference compound, A027, was used as a positive control for each plate.
For orientation: Time-resolved FRET reads energy transfer from a long-lived donor to a nearby acceptor.

Where [1] appears, read: ALPK1 2 nM, TIFA substrate, ADP-Heptose activator, HTRF readout.

ALPK1, sequence (Q96QP1 whole entry): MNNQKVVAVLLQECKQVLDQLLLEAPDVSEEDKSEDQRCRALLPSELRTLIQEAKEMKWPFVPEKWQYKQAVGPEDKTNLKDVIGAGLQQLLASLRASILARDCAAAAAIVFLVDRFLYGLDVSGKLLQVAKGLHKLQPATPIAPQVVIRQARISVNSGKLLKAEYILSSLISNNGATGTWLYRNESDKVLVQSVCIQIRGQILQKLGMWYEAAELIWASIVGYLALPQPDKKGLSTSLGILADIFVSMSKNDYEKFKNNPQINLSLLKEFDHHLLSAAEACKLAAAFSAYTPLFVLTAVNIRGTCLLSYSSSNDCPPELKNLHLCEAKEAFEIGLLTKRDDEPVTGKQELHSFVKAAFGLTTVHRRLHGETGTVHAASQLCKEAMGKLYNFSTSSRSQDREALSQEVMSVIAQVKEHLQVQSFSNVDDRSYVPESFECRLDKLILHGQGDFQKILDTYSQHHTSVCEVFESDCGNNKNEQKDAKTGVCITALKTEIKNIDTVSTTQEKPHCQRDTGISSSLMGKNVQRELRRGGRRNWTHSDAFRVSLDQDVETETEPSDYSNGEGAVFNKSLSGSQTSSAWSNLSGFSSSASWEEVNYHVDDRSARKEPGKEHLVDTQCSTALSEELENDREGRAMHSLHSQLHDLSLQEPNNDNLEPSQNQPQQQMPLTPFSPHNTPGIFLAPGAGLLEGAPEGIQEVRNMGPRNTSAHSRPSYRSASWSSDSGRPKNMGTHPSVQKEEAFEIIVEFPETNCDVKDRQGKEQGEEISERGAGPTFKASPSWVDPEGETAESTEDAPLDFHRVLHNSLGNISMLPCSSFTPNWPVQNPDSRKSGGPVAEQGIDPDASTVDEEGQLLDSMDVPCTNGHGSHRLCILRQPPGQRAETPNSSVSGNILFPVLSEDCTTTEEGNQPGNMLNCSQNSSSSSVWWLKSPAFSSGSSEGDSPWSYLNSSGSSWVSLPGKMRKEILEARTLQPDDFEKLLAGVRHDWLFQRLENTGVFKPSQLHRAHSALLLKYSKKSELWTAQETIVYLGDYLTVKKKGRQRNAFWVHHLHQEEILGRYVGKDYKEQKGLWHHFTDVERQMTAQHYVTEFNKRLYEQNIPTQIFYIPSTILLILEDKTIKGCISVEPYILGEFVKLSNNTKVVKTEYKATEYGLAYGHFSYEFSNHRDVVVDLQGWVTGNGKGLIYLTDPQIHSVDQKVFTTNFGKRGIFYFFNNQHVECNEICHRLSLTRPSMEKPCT

A word on the IC50: it is the concentration needed to halve the response being measured. High values mean a need for much substance, low ones inhibition by little substance. Regarding `C#CC(C)(c1ccc(OC(F)F)cc1)c1csc(NC(=O)c2c(F)cc(N3CCNCC3)cc2F)n1` (centres unmarked) [Example C033, N-(4-(2-(4-(difluoromethoxy)phenyl)but-3-yn-2-yl)thiazol-2-yl)-2,6-difluoro-4-(piperazin-1-yl)benzamide], under setting [1], the half-maximal inhibitory concentration (IC50) amounted to 0.073 µM.
The same measure, in the same setting: the figure for `CN1CCN(c2cc(F)c(C(=O)Nc3nc(C4(c5ccc(Br)cc5)CCCC4)cs3)c(F)c2)CC1` [Example C015, N-(4-(1-(4-bromophenyl)cyclopentyl)thiazol-2-yl)-2,6-difluoro-4-(4-methylpiperazin-1-yl)benzamide] is 0.266 µM; for `C#CC(C)(c1ccc(OC)cc1)c1csc(NC(C)=O)n1` (centres unmarked) [Example D002, N-(4-(2-(4-methoxyphenyl)but-3-yn-2-yl)thiazol-2-yl)acetamide] it is 0.196 µM; for `COc1ccc(C(C)(C)c2csc(NC(=O)c3ccc(NCCN)cc3)n2)cc1` [Example B033, 4-((2-aminoethyl)amino)-N-(4-(2-(4-methoxyphenyl)propan-2-yl)thiazol-2-yl)benzamide] it is 0.247 µM.
`COC[C@@](C)(c1ccc(Cl)cc1)c1csc(NC(=O)c2c(F)cc(N3CCNCC3)cc2F)n1` [Example C025, (S)-N-(4-(2-(4-chlorophenyl)-1-methoxypropan-2-yl)thiazol-2-yl)-2,6-difluoro-4-(piperazin-1-yl)benzamide] returned an IC50 under setting [1] of 0.008 µM.
In turn, `C#CC(C)(c1ccc(Cl)cc1)c1csc(NC(=O)c2ccc(N3CCNCC3)cc2F)n1` (centres unmarked) [Example B065, N-(4-(2-(4-chlorophenyl)but-3-yn-2-yl)thiazol-2-yl)-2-fluoro-4-(piperazin-1-yl)benzamide] displayed a 50% inhibitory concentration (IC50) under setting [1] of 0.215 µM.
Still for that read-out and setting: the figure for `CC(C)(c1ccc(Br)cc1)c1csc(NC(=O)c2ccc3[nH]ccc3c2)n1` [Example B002, N-(4-(2-(4-bromophenyl)propan-2-yl)thiazol-2-yl)-1H-indole-5-carboxamide] is 0.206 µM; for `C#CC(C)(c1ccc(F)cc1)c1csc(NC(=O)c2c(F)cc(-c3cnn(C)c3N)cc2F)n1` (centres unmarked) [Example B102, 4-(5-amino-1-methyl-1H-pyrazol-4-yl)-2,6-difluoro-N-(4-(2-(4-fluorophenyl)but-3-yn-2-yl)thiazol-2-yl)benzamide] it is 1.27 µM.
Still for that read-out and setting: next, `COc1ccc(C(C)(C)c2csc(NC(=O)c3cccc(CN4CCNCC4)c3)n2)cc1` [Example B005, N-(4-(2-(4-methoxyphenyl)propan-2-yl)thiazol-2-yl)-3-(piperazin-1-ylmethyl)benzamide]: 0.215 µM.
Still for that read-out and setting: the figure for `COc1ccc(C(C)(C)c2csc(NC(=O)c3ccc(N4CCC(N)C4)nc3)n2)cc1` (centres unmarked) [Example B043, 6-(3-aminopyrrolidin-1-yl)-N-(4-(2-(4-methoxyphenyl)propan-2-yl)thiazol-2-yl)nicotinamide] is 0.14 µM.
Turning to `COc1ccc(C(C)(C)c2csc(NC(=O)NCc3cccc(N4CCNCC4)n3)n2)cc1` [Example A043, 1-(4-(2-(4-methoxyphenyl)propan-2-yl)thiazol-2-yl)-3-((6-(piperazin-1-yl)pyridin-2-yl)methyl)urea], the midpoint of inhibition, the IC50, lay at 0.165 µM.
`C#CC(C)(c1ccc(F)cc1)c1csc(NC(=O)c2ccc(N3CCNCC3)c(C(N)=O)c2)n1` (centres unmarked) [Example B081, N1-(4-(2-(4-fluorophenyl)but-3-yn-2-yl)thiazol-2-yl)-4-(piperazin-1-yl)isophthalamide] came in with an IC50 under setting [1] of 0.102 µM.
Same read-out and setting: next, `C#C[C@](C)(c1ccc(Cl)cc1)c1csc(NC(=O)c2c(F)cc(N3CCC(N)C3)cc2F)n1` (stereo in doubt) [Example B085, 4-(3-aminopyrrolidin-1-yl)-N-(4-(2-(4-chlorophenyl)but-3-yn-2-yl)thiazol-2-yl)-2,6-difluorobenzamide]: 0.395 µM; `C#C[C@](C)(c1ccc(F)cc1)c1csc(NC(=O)c2c(F)cc(N3CCC(N)C3)cc2F)n1` (stereo in doubt) [Example B089, 4-(3-aminopyrrolidin-1-yl)-2,6-difluoro-N-(4-(2-(4-fluorophenyl)but-3-yn-2-yl)thiazol-2-yl)benzamide]: 0.681 µM.
Same read-out and setting: the figure for `COc1ccc(C(C)(C)c2csc(NC(=O)c3ccc(CN4CCNCC4)cc3F)n2)cc1` [Example B013, 2-fluoro-N-(4-(2-(4-methoxyphenyl)propan-2-yl)thiazol-2-yl)-4-(piperazin-1-ylmethyl)benzamide] is 0.111 µM; for `CC(C)(c1ccc(Br)cc1)c1csc(NC(=O)c2ccc(CN3CCN(CCO)CC3)nc2)n1` [Example B051, N-(4-(2-(4-bromophenyl)propan-2-yl)thiazol-2-yl)-6-((4-(2-hydroxyethyl)piperazin-1-yl)methyl)nicotinamide] it is 0.061 µM.
In turn, `CC(C)(c1ccc(Cl)cc1)c1csc(NC(=O)NCc2cnc(N3CCC(N)C3)nc2)n1` (centres unmarked) [Example A068, 1-((2-(3-aminopyrrolidin-1-yl)pyrimidin-5-yl)methyl)-3-(4-(2-(4-chlorophenyl)propan-2-yl)thiazol-2-yl)urea] yielded an IC50 of 0.269 µM.
The same measure, in the same setting: the figure for `COc1ccc(C(C)(C)c2csc(NC(=O)NCc3cnc(N4CCNCC4)c(C(N)=O)c3)n2)cc1` [Example A209, 5-((3-(4-(2-(4-methoxyphenyl)propan-2-yl)thiazol-2-yl)ureido)methyl)-2-(piperazin-1-yl)nicotinamide] is 0.043 µM.
Still for that read-out and setting: next, `COc1ccc(C(C)(C)c2csc(NC(=O)NCc3ccc(N4CCNCC4)c(C(=O)N(C)C)c3)n2)cc1` [Example A185, 5-((3-(4-(2-(4-methoxyphenyl)propan-2-yl)thiazol-2-yl)ureido)methyl)-N,N-dimethyl-2-(piperazin-1-yl)benzamide]: 0.056 µM.
In the case of `CC(C)(c1ccc(Br)cc1)c1csc(NC(=O)c2ccc(N3CCNCC3)nc2)n1` [Example B035, N-(4-(2-(4-bromophenyl)propan-2-yl)thiazol-2-yl)-6-(piperazin-1-yl)nicotinamide], the IC50 under setting [1] was found to be 0.075 µM.
The same measure, in the same setting: next, `C#CC(C)(c1ccc(Cl)cc1)c1csc(NC(=O)c2c(F)ccc(OC)c2F)n1` (centres unmarked) [Example B064, N-(4-(2-(4-chlorophenyl)but-3-yn-2-yl)thiazol-2-yl)-2,6-difluoro-3-methoxybenzamide]: 0.054 µM.
The same measure, in the same setting: next, `C#C[C@@](C)(c1ccc(F)cc1)c1csc(NC(=O)c2ccc(N3CCNCC3CO)cc2)n1` (stereo in doubt) [Example B069, N-[4-[1-(4-fluorophenyl)-1-methyl-prop-2-ynyl]thiazol-2-yl]-4-[2-(hydroxymethyl)piperazin-1-yl]benzamide]: 0.02 µM; `C#CC(C)(c1ccc(Cl)cc1)c1csc(NC(=O)c2ccc(N3CCNCC3)nc2)n1` (centres unmarked) [Example B061, N-(4-(2-(4-chlorophenyl)but-3-yn-2-yl)thiazol-2-yl)-6-(piperazin-1-yl)nicotinamide]: 0.167 µM; `COCC(C)(c1ccc(OC)cc1)c1csc(NC(=O)c2c(F)cc(N3CCNCC3)cc2F)n1` (centres unmarked) [Example C028, 2,6-difluoro-N-(4-(1-methoxy-2-(4-methoxyphenyl)propan-2-yl)thiazol-2-yl)-4-(piperazin-1-yl)benzamide]: 0.288 µM.
On the same count and under the same terms, next, `COc1ccc(C(C)(C)c2csc(NC(=O)c3ccc(OCCN(C)C)cc3)n2)cc1` [Example B021, 4-(2-(dimethylamino)ethoxy)-N-(4-(2-(4-methoxyphenyl)propan-2-yl)thiazol-2-yl)benzamide]: 0.083 µM; `Cc1ccc(C(C)(C)c2csc(NC(=O)c3ccc(CN4CCN(C)CC4)cc3)n2)cc1` [Example B046, 4-((4-methylpiperazin-1-yl)methyl)-N-(4-(2-(p-tolyl)propan-2-yl)thiazol-2-yl)benzamide]: 0.028 µM; `C#C[C@](C)(c1csc(NC(=O)c2c(F)cc(N3CCNCC3)cc2F)n1)c1ccc(Cl)cc1F` (stereo in doubt) [Example C044, N-(4-(2-(4-chloro-2-fluorophenyl)but-3-yn-2-yl)thiazol-2-yl)-2,6-difluoro-4-(piperazin-1-yl)benzamide]: 0.025 µM.
Under setting [1], `CC(=O)Nc1nc(C(C)(C)c2ccc(Br)cc2)cs1` [Example D001, N-(4-(2-(4-bromophenyl)propan-2-yl)thiazol-2-yl)acetamide] registered an IC50 of 0.1 µM.
`CC(C)(c1ccc(Br)cc1)c1csc(NC(=O)c2cnc(N3CCNCC3)nc2)n1` [Example B036, N-(4-(2-(4-bromophenyl)propan-2-yl)thiazol-2-yl)-2-(piperazin-1-yl)pyrimidine-5-carboxamide] showed an IC50 under setting [1] of 0.11 µM.
